“And” between values parts separate entries of the source, which are not always exact repeats. Equal entries are not always repeated. Inconclusive results and toxic doses are left out.
Tested on: L1210 leukemia ip in BDF1 mice, survival T/C
Test: NCI In Vivo Anticancer Drug Screen. Data for tumor model L1210 Leukemia (intraperitoneal) in B6D2F1 (BDF1) mice
Conditions: higher = longer survival
How it was run: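 Antitumor effect is assessed in tumor-bearing animals. Survival in the compound arm is compared with a vehicle-dosed control arm and expressed as their quotient.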

SMILES: N=c1ccn2c(n1)OC1C(O)C(CO)OC12 (stereo not drawn)
- T/C (endpoint: mean survival time, dose: 0.79 mg/kg/injection, schedule: Q03HX024 (ip), vehicle: water): 110 % of control
- T/C (endpoint: mean survival time, dose: 1.56 mg/kg/injection, schedule: Q01DX009 (ip), vehicle: water): 103 % of control
- T/C (endpoint: mean survival time, dose: 3.13 mg/kg/injection, schedule: Q01DX009 (ip), vehicle: water): 110 % of control
- T/C (endpoint: mean survival time, dose: 100.0 mg/kg/injection, schedule: Q04DX003 (ip), vehicle: water): 169 % of control
- T/C (endpoint: mean survival time, dose: 118.0 mg/kg/injection, schedule: Q01DX009 (ip), vehicle: clinical formulation): 203 % of control
- T/C (endpoint: mean survival time, dose: 118.0 mg/kg/injection, schedule: Q01DX009 (ip), vehicle: saline): 195 % of control
- T/C (endpoint: mean survival time, dose: 177.0 mg/kg/injection, schedule: Q01DX009 (ip), vehicle: clinical formulation): 213 % of control
- T/C (endpoint: mean survival time, dose: 177.0 mg/kg/injection, schedule: Q01DX009 (ip), vehicle: saline): 230 % of control
- T/C (endpoint: mean survival time, dose: 200.0 mg/kg/injection, schedule: Q04DX003 (ip), vehicle: water): 180 % of control
- T/C (endpoint: mean survival time, dose: 266.0 mg/kg/injection, schedule: Q01DX009 (ip), vehicle: clinical formulation): 250 % of control
- T/C (endpoint: mean survival time, dose: 266.0 mg/kg/injection, schedule: Q01DX009 (ip), vehicle: saline): 258 % of control
- T/C (endpoint: mean survival time, dose: 400.0 mg/kg/injection, schedule: Q01DX009 (ip), vehicle: clinical formulation): 254 % of control
- T/C (endpoint: mean survival time, dose: 400.0 mg/kg/injection, schedule: Q01DX009 (ip), vehicle: saline): 246 % of control
- T/C (endpoint: mean survival time, dose: 400.0 mg/kg/injection, schedule: Q04DX003 (ip), vehicle: water): 215 % of control
- T/C (endpoint: mean survival time, dose: 600.0 mg/kg/injection, schedule: Q01DX009 (ip), vehicle: clinical formulation): 101 % of control
- T/C (endpoint: mean survival time, dose: 1200.0 mg/kg/injection, schedule: Q01DX001 (ip), vehicle: saline): 158 % of control
- T/C (endpoint: mean survival time, dose: 1600.0 mg/kg/injection, schedule: Q01DX001 (ip), vehicle: saline): 154 % of control and 161 % of control and 166 % of control
- T/C (endpoint: mean survival time, dose: 2000.0 mg/kg/injection, schedule: Q01DX001 (ip), vehicle: saline): 161 % of control and 170 % of control and 172 % of control
- T/C (endpoint: median survival time, dose: 5.0 mg/kg/injection, schedule: Q03HX008 (ip), vehicle: saline): 161 % of control
- T/C (endpoint: median survival time, dose: 12.5 mg/kg/injection, schedule: Q01DX009 (ip), vehicle: saline): 157 % of control
- T/C (endpoint: median survival time, dose: 25.0 mg/kg/injection, schedule: Q01DX009 (ip), vehicle: saline): 178 % of control
- T/C (endpoint: median survival time, dose: 25.0 mg/kg/injection, schedule: Q03HX024 (ip), vehicle: water): 170 % of control and 250 % of control
- T/C (endpoint: median survival time, dose: 50.0 mg/kg/injection, schedule: Q01DX009 (ip), vehicle: saline): 184 % of control
- T/C (endpoint: median survival time, dose: 50.0 mg/kg/injection, schedule: Q01DX009 (ip), vehicle: steriod suspending solution): 170 % of control
- T/C (endpoint: median survival time, dose: 50.0 mg/kg/injection, schedule: Q03HX016 (ip), vehicle: saline): 211 % of control
- T/C (endpoint: median survival time, dose: 50.0 mg/kg/injection, schedule: Q03HX024 (ip), vehicle: saline): 255 % of control
- T/C (endpoint: median survival time, dose: 50.0 mg/kg/injection, schedule: Q03HX024 (ip), vehicle: water): 205 % of control and 230 % of control
- T/C (endpoint: median survival time, dose: 100.0 mg/kg/injection, schedule: Q01DX009 (ip), vehicle: saline): 190 % of control and 205 % of control
- T/C (endpoint: median survival time, dose: 100.0 mg/kg/injection, schedule: Q01DX009 (ip), vehicle: steriod suspending solution): 185 % of control
- T/C (endpoint: median survival time, dose: 100.0 mg/kg/injection, schedule: Q01DX009 (oral), vehicle: saline): 166 % of control
- T/C (endpoint: median survival time, dose: 100.0 mg/kg/injection, schedule: Q03HX008 (ip), vehicle: saline): 155 % of control
- T/C (endpoint: median survival time, dose: 100.0 mg/kg/injection, schedule: Q03HX016 (ip), vehicle: saline): 233 % of control
- T/C (endpoint: median survival time, dose: 100.0 mg/kg/injection, schedule: Q03HX024 (ip), vehicle: saline): 322 % of control
- T/C (endpoint: median survival time, dose: 100.0 mg/kg/injection, schedule: Q03HX024 (ip), vehicle: water): 250 % of control and 270 % of control
- T/C (endpoint: median survival time, dose: 100.0 mg/kg/injection, schedule: Q04DX003 (oral), vehicle: water): 111 % of control
- T/C (endpoint: median survival time, dose: 108.0 mg/kg/injection, schedule: Q01DX008 (ip), vehicle: water): 179 % of control
- T/C (endpoint: median survival time, dose: 120.0 mg/kg/injection, schedule: Q01DX001 (ip), vehicle: water): 166 % of control
- T/C (endpoint: median survival time, dose: 160.0 mg/kg/injection, schedule: Q01DX001 (ip), vehicle: water): 166 % of control
- T/C (endpoint: median survival time, dose: 180.0 mg/kg/injection, schedule: Q01DX008 (ip), vehicle: water): 182 % of control
- T/C (endpoint: median survival time, dose: 200.0 mg/kg/injection, schedule: Q01DX001 (ip), vehicle: saline): 122 % of control
- T/C (endpoint: median survival time, dose: 200.0 mg/kg/injection, schedule: Q01DX001 (ip), vehicle: water): 105 % of control
- T/C (endpoint: median survival time, dose: 200.0 mg/kg/injection, schedule: Q01DX009 (ip), vehicle: saline): 219 % of control and 222 % of control and 234 % of control
- T/C (endpoint: median survival time, dose: 200.0 mg/kg/injection, schedule: Q01DX009 (ip), vehicle: steriod suspending solution): 235 % of control
- T/C (endpoint: median survival time, dose: 200.0 mg/kg/injection, schedule: Q01DX009 (oral), vehicle: saline): 188 % of control
- T/C (endpoint: median survival time, dose: 200.0 mg/kg/injection, schedule: Q03HX008 (ip), vehicle: saline): 177 % of control
- T/C (endpoint: median survival time, dose: 200.0 mg/kg/injection, schedule: Q03HX016 (ip), vehicle: saline): 255 % of control
- T/C (endpoint: median survival time, dose: 200.0 mg/kg/injection, schedule: Q03HX024 (oral), vehicle: water): 116 % of control
- T/C (endpoint: median survival time, dose: 200.0 mg/kg/injection, schedule: Q04DX003 (ip), vehicle: saline): 177 % of control
- T/C (endpoint: median survival time, dose: 200.0 mg/kg/injection, schedule: Q04DX003 (ip), vehicle: water): 160 % of control
- T/C (endpoint: median survival time, dose: 216.0 mg/kg/injection, schedule: Q01DX009 (ip), vehicle: water): 100 % of control and 105 % of control
- T/C (endpoint: median survival time, dose: 300.0 mg/kg/injection, schedule: Q01DX008 (ip), vehicle: water): 202 % of control
- T/C (endpoint: median survival time, dose: 300.0 mg/kg/injection, schedule: Q01DX009 (ip), vehicle: saline): 221 % of control
- T/C (endpoint: median survival time, dose: 360.0 mg/kg/injection, schedule: Q01DX009 (ip), vehicle: water): 104 % of control and 111 % of control
- T/C (endpoint: median survival time, dose: 400.0 mg/kg/injection, schedule: Q01DX001 (ip), vehicle: water): 100 % of control
- T/C (endpoint: median survival time, dose: 400.0 mg/kg/injection, schedule: Q01DX001 (oral), vehicle: water): 120 % of control
- T/C (endpoint: median survival time, dose: 400.0 mg/kg/injection, schedule: Q01DX009 (ip), vehicle: saline): 223 % of control and 262 % of control and 311 % of control
- T/C (endpoint: median survival time, dose: 400.0 mg/kg/injection, schedule: Q01DX009 (ip), vehicle: steriod suspending solution): 315 % of control
- T/C (endpoint: median survival time, dose: 400.0 mg/kg/injection, schedule: Q01DX009 (oral), vehicle: saline): 205 % of control
- T/C (endpoint: median survival time, dose: 400.0 mg/kg/injection, schedule: Q03HX008 (ip), vehicle: saline): 188 % of control
- T/C (endpoint: median survival time, dose: 400.0 mg/kg/injection, schedule: Q03HX024 (ip), vehicle: saline): 88 % of control
- T/C (endpoint: median survival time, dose: 400.0 mg/kg/injection, schedule: Q03HX024 (ip), vehicle: water): 100 % of control
- T/C (endpoint: median survival time, dose: 400.0 mg/kg/injection, schedule: Q04DX003 (ip), vehicle: saline): 150 % of control
- T/C (endpoint: median survival time, dose: 400.0 mg/kg/injection, schedule: Q04DX003 (ip), vehicle: water): 165 % of control
- T/C (endpoint: median survival time, dose: 500.0 mg/kg/injection, schedule: Q01DX008 (ip), vehicle: water): 164 % of control
- T/C (endpoint: median survival time, dose: 500.0 mg/kg/injection, schedule: Q01DX009 (ip), vehicle: saline): 211 % of control
- T/C (endpoint: median survival time, dose: 600.0 mg/kg/injection, schedule: Q01DX009 (ip), vehicle: saline): 232 % of control
- T/C (endpoint: median survival time, dose: 700.0 mg/kg/injection, schedule: Q01DX009 (ip), vehicle: saline): 156 % of control
- T/C (endpoint: median survival time, dose: 800.0 mg/kg/injection, schedule: Q01DX001 (ip), vehicle: water): 120 % of control
- T/C (endpoint: median survival time, dose: 800.0 mg/kg/injection, schedule: Q01DX009 (ip), vehicle: saline): 94 % of control
- T/C (endpoint: median survival time, dose: 800.0 mg/kg/injection, schedule: Q01DX009 (oral), vehicle: saline): 122 % of control
- T/C (endpoint: median survival time, dose: 800.0 mg/kg/injection, schedule: Q01DX009 (oral), vehicle: water): 94 % of control
- T/C (endpoint: median survival time, dose: 800.0 mg/kg/injection, schedule: Q04DX003 (ip), vehicle: water): 200 % of control
- T/C (endpoint: median survival time, dose: 800.0 mg/kg/injection, schedule: Q04DX003 (oral), vehicle: saline): 166 % of control
- T/C (endpoint: median survival time, dose: 1600.0 mg/kg/injection, schedule: Q01DX001 (ip), vehicle: saline): 155 % of control
- T/C (endpoint: median survival time, dose: 1600.0 mg/kg/injection, schedule: Q01DX001 (ip), vehicle: water): 155 % of control
- T/C (endpoint: median survival time, dose: 1600.0 mg/kg/injection, schedule: Q04DX003 (ip), vehicle: water): 100 % of control
- T/C (endpoint: median survival time, dose: 1600.0 mg/kg/injection, schedule: Q04DX003 (oral), vehicle: saline): 244 % of control
- T/C (endpoint: median survival time, dose: 2000.0 mg/kg/injection, schedule: Q01DX001 (oral), vehicle: water): 150 % of control
